Results from PubChem BioAssay AID2060897 (Molecular Pharmacology Branch, DTP, NCI, 2025).

Test system: 966289-007-R4-J1-PDC complex spheroid viability
Experiment: Anticancer human tumor 966289-007-R4-J1-PDC patient-derived pancreatic adenocarcinoma cell line growth inhibition [RAS]
Conditions: for IC50: curve of first compound; for viability, T/C: stronger effect = lower value
Outline: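 Tumour cells grown as complex spheroids with HUVEC endothelial cells and mesenchymal stem cells, treated with RAS pathway inhibitor combinations. Each agent spans half-log steps from near clinical Cmax, or 10 microM where Cmax is unknown.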

[1] = second compound 0.00316 µM, first compound 0.0316 µM
[2] = second compound 0.00316 µM, first compound 0.1 µM
[3] = second compound 0.00316 µM, first compound 0.316 µM
[4] = second compound 0.00316 µM, first compound 1 µM
[5] = second compound 0.01 µM, first compound 0.0316 µM
[6] = second compound 0.01 µM, first compound 0.1 µM
[7] = second compound 0.01 µM, first compound 0.316 µM
[8] = second compound 0.01 µM, first compound 1 µM
[9] = second compound 0.0316 µM, first compound 0.0316 µM
[10] = second compound 0.0316 µM, first compound 0.1 µM
[11] = second compound 0.0316 µM, first compound 0.316 µM
[12] = second compound 0.0316 µM, first compound 1 µM
[13] = second compound 0.1 µM, first compound 0.0316 µM
[14] = second compound 0.1 µM, first compound 0.1 µM
[15] = second compound 0.1 µM, first compound 0.316 µM
[16] = second compound 0.1 µM, first compound 1 µM
[17] = second compound 0.316 µM, first compound 0.0316 µM
[18] = second compound 0.316 µM, first compound 0.1 µM
[19] = second compound 0.316 µM, first compound 0.316 µM
[20] = second compound 0.316 µM, first compound 1 µM
[21] = second compound 1 µM, first compound 0.0316 µM
[22] = second compound 1 µM, first compound 0.1 µM
[23] = second compound 1 µM, first compound 0.316 µM
[24] = second compound 1 µM, first compound 1 µM
[25] = second compound 0.00316 µM, first compound 3.16 µM
[26] = second compound 0.00316 µM, first compound 10 µM
[27] = second compound 0.01 µM, first compound 3.16 µM
[28] = second compound 0.01 µM, first compound 10 µM
[29] = second compound 0.0316 µM, first compound 3.16 µM
[30] = second compound 0.0316 µM, first compound 10 µM
[31] = second compound 0.1 µM, first compound 3.16 µM
[32] = second compound 0.1 µM, first compound 10 µM
[33] = second compound 0.316 µM, first compound 3.16 µM
[34] = second compound 0.316 µM, first compound 10 µM
[35] = second compound 1 µM, first compound 3.16 µM
[36] = second compound 1 µM, first compound 10 µM
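Further: spheroids exposed to agents for one week before readout.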
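Wherever viability, T/C is given: percent viability relative to DMSO vehicle control wells as 100%.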

For CCN1CCN(Cc2ccc(Nc3ncc(F)c(-c4cc(F)c5nc(C)n(C(C)C)c5c4)n3)nc2)CC1 + C=CC(=O)N1CCN(c2nc(OCC3CCCN3C)nc3c(F)c(-c4nc(N)cc(C)c4C(F)(F)F)c(Cl)cc23)C(C)C1, the IC50 (second compound 0.00316 µM) was over 1 µM, the IC50 (second compound 0.01 µM) was over 1 µM and the IC50 (second compound 0.0316 µM) was over 1 µM. For the same molecule, the IC50 (second compound 0.1 µM) was over 1 µM, the IC50 (second compound 0.316 µM) was over 1 µM and the IC50 (second compound 1 µM) was over 1 µM. For the same molecule, the viability, T/C (second compound 0.00316 µM, first compound 0.00316 µM) was 109%, the viability, T/C (second compound 0.00316 µM, first compound 0.01 µM) was 110% and the viability, T/C [1] was 101%. The viability, T/C [2] was 95.8%, the viability, T/C [3] was 83.5% and the viability, T/C [4] was 76.2%. It also gave a viability, T/C (second compound 0.01 µM, first compound 0.00316 µM) of 96%, a viability, T/C (second compound 0.01 µM, first compound 0.01 µM) of 110% and a viability, T/C [5] of 120%. The viability, T/C [6] was 107%, the viability, T/C [7] was 99.1% and the viability, T/C [8] was 72.6%. The viability, T/C (second compound 0.0316 µM, first compound 0.00316 µM) was 116%, the viability, T/C (second compound 0.0316 µM, first compound 0.01 µM) was 126% and the viability, T/C [9] was 106%. For the same molecule, the viability, T/C [10] was 113%, the viability, T/C [11] was 84.8% and the viability, T/C [12] was 72.8%. The viability, T/C (second compound 0.1 µM, first compound 0.00316 µM) was 107%, the viability, T/C (second compound 0.1 µM, first compound 0.01 µM) was 121% and the viability, T/C [13] was 121%. It also gave a viability, T/C [14] of 109%, a viability, T/C [15] of 78.8% and a viability, T/C [16] of 78.7%. For the same molecule, the viability, T/C (second compound 0.316 µM, first compound 0.00316 µM) was 106%, the viability, T/C (second compound 0.316 µM, first compound 0.01 µM) was 103% and the viability, T/C [17] was 120%. The viability, T/C [18] was 105%, the viability, T/C [19] was 89.4% and the viability, T/C [20] was 73.4%. For the same molecule, the viability, T/C (second compound 1 µM, first compound 0.00316 µM) was 98.5%, the viability, T/C (second compound 1 µM, first compound 0.01 µM) was 98.6% and the viability, T/C [21] was 120%. It also gave a viability, T/C [22] of 102%, a viability, T/C [23] of 79% and a viability, T/C [24] of 77.2%.
Cc1nc(N2CCC3(CC2)COC(C)C3N)c(CO)nc1Sc1ccnc(N)c1Cl (stereo unspecified) + C=CC(=O)N1CCN(c2nc(OCC3CCCN3C)nc3c(F)c(-c4nc(N)cc(C)c4C(F)(F)F)c(Cl)cc23)C(C)C1 was tested, and the IC50 (second compound 0.00316 µM) was over 10 µM, the IC50 (second compound 0.01 µM) was over 10 µM and the IC50 (second compound 0.0316 µM) was over 10 µM. The IC50 (second compound 0.1 µM) was over 10 µM, the IC50 (second compound 0.316 µM) was over 10 µM and the IC50 (second compound 1 µM) was over 10 µM. The viability, T/C [1] was 100%, the viability, T/C [2] was 90.2% and the viability, T/C [3] was 121%. For the same molecule, the viability, T/C [4] was 105%, the viability, T/C [25] was 106% and the viability, T/C [26] was 80%. The viability, T/C [5] was 109%, the viability, T/C [6] was 89.6% and the viability, T/C [7] was 109%. It also gave a viability, T/C [8] of 94.6%, a viability, T/C [27] of 100% and a viability, T/C [28] of 98.6%. It also gave a viability, T/C [9] of 106%, a viability, T/C [10] of 97.9% and a viability, T/C [11] of 110%. It also gave a viability, T/C [12] of 105%, a viability, T/C [29] of 108% and a viability, T/C [30] of 84.7%. For the same molecule, the viability, T/C [13] was 91.1%, the viability, T/C [14] was 107% and the viability, T/C [15] was 107%. For the same molecule, the viability, T/C [16] was 99.9%, the viability, T/C [31] was 101% and the viability, T/C [32] was 81.6%. The viability, T/C [17] was 111%, the viability, T/C [18] was 102% and the viability, T/C [19] was 123%. For the same molecule, the viability, T/C [20] was 114%, the viability, T/C [33] was 97.8% and the viability, T/C [34] was 101%. It also gave a viability, T/C [21] of 91.3%, a viability, T/C [22] of 98.1% and a viability, T/C [23] of 112%. For the same molecule, the viability, T/C [24] was 107%, the viability, T/C [35] was 104% and the viability, T/C [36] was 97.1%.
NC1c2ccccc2OC12CCN(c1cnc3c(N4CCCc5ncccc54)n[nH]c3n1)CC2 (stereo unspecified) + C=CC(=O)N1CCN(c2nc(OCC3CCCN3C)nc3c(F)c(-c4nc(N)cc(C)c4C(F)(F)F)c(Cl)cc23)C(C)C1 was tested, and the IC50 (second compound 0.00316 µM) was over 10 µM, the IC50 (second compound 0.01 µM) was over 10 µM and the IC50 (second compound 0.0316 µM) was over 10 µM. For the same molecule, the IC50 (second compound 0.1 µM) was over 10 µM, the IC50 (second compound 0.316 µM) was over 10 µM and the IC50 (second compound 1 µM) was over 10 µM. The viability, T/C [1] was 117%, the viability, T/C [2] was 90.1% and the viability, T/C [3] was 126%. For the same molecule, the viability, T/C [4] was 102%, the viability, T/C [25] was 113% and the viability, T/C [26] was 103%. For the same molecule, the viability, T/C [5] was 113%, the viability, T/C [6] was 104% and the viability, T/C [7] was 104%. For the same molecule, the viability, T/C [8] was 122%, the viability, T/C [27] was 107% and the viability, T/C [28] was 118%. The viability, T/C [9] was 113%, the viability, T/C [10] was 103% and the viability, T/C [11] was 133%. For the same molecule, the viability, T/C [12] was 113%, the viability, T/C [29] was 126% and the viability, T/C [30] was 119%. It also gave a viability, T/C [13] of 101%, a viability, T/C [14] of 103% and a viability, T/C [15] of 94.2%. It also gave a viability, T/C [16] of 105%, a viability, T/C [31] of 119% and a viability, T/C [32] of 107%. For the same molecule, the viability, T/C [17] was 109%, the viability, T/C [18] was 91.4% and the viability, T/C [19] was 107%. The viability, T/C [20] was 120%, the viability, T/C [33] was 102% and the viability, T/C [34] was 106%. It also gave a viability, T/C [21] of 105%, a viability, T/C [22] of 114% and a viability, T/C [23] of 123%. For the same molecule, the viability, T/C [24] was 113%, the viability, T/C [35] was 116% and the viability, T/C [36] was 124%.
